{
  "source": "ChEMBL document CHEMBL2407022",
  "about": "“Advancement of Imidazo[1,2-a]pyridines with Improved Pharmacokinetics and Nanomolar Activity Against Mycobacterium tuberculosis” (ACS Med Chem Lett, 2013)",
  "key": {"[1]": {"test_system": "Mycobacterium tuberculosis", "test": "Antimycobacterial activity against Mycobacterium tuberculosis H37Rv expressing pCHERRY3 after 4 days by plate format assay", "assay_type": "functional", "conditions": "96 h"}, "[2]": {"test_system": "Mycobacterium tuberculosis", "test": "Antimycobacterial activity against isoniazid, rifampin, ethambutol, kanamycin and p-aminosalicylic acid-resistant Mycobacterium tuberculosis after 14 days", "assay_type": "functional", "conditions": "336 h"}, "[3]": {"test_system": "Mycobacterium tuberculosis", "test": "Antimycobacterial activity against drug-sensitive Mycobacterium tuberculosis clinical isolate 2 after 14 days", "assay_type": "functional", "conditions": "clinical isolate 2, 336 h"}, "[4]": {"test_system": "Mycobacterium tuberculosis", "test": "Antimycobacterial activity against isoniazid, rifampin, ethambutol, pyrazinamide, streptomycin, kanamycin and p-aminosalicylic acid-resistant Mycobacterium tuberculosis after 14 days", "assay_type": "functional", "conditions": "336 h"}, "[5]": {"test_system": "Mycobacterium tuberculosis", "test": "Antimycobacterial activity against drug-sensitive Mycobacterium tuberculosis clinical isolate 1 after 14 days", "assay_type": "functional", "conditions": "clinical isolate 1, 336 h"}, "[6]": {"test": "Drug metabolism in rat liver microsomes assessed as monohydroxylations on imidazopyridine at 2 uM after 30 mins by LC/MS/MS analysis", "assay_type": "ADME, Microsome", "conditions": "0.5 h"}, "[7]": {"test": "Drug metabolism in human liver microsomes assessed as monohydroxylations on imidazopyridine at 2 uM after 30 mins by LC/MS/MS analysis", "assay_type": "ADME, Microsome", "conditions": "0.5 h"}, "[8]": {"test": "Drug metabolism in mouse liver microsomes assessed as monohydroxylations on imidazopyridine at 2 uM after 30 mins by LC/MS/MS analysis", "assay_type": "ADME, Microsome", "conditions": "0.5 h"}, "[9]": {"molecular_target": "Cytochrome P450 2C9 (Homo sapiens, UniProt P11712)", "sequence (P11712 whole entry)": "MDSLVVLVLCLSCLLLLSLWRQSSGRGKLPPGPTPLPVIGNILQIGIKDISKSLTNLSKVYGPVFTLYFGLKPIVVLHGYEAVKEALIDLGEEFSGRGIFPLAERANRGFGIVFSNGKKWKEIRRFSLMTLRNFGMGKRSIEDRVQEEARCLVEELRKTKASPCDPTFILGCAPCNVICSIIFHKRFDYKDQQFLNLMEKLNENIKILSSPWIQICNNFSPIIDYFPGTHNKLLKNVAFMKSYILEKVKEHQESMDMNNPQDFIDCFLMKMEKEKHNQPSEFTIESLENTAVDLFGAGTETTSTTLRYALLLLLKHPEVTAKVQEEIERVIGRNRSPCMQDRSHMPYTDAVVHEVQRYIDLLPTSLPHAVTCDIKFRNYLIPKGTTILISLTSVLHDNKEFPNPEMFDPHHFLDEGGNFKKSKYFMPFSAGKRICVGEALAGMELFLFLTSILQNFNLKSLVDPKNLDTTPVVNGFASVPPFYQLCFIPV", "test": "Time dependent inhibition of CYP3A4 in human liver microsomes using midazolam as substrate at 10 uM after 10 mins", "assay_type": "ADME, Microsome"}, "[10]": {"test": "Tmax in Balb/c mouse at 3 mg/kg, po", "assay_type": "ADME, organism-based", "design": "dose 3 mg/kg, route oral", "conditions": "in vivo"}, "[11]": {"test": "Tmax in Balb/c mouse at 10 mg/kg, po", "assay_type": "ADME, organism-based", "design": "dose 10 mg/kg, route oral", "conditions": "in vivo"}, "[12]": {"test_system": "Mycobacterium tuberculosis", "test": "Antimycobacterial activity against Mycobacterium tuberculosis H37Rv expressing pCHERRY3 after 4 days by plate format assay in presence of bovine serum albumin", "assay_type": "functional, organism-based"}, "[13]": {"test": "Half life in Balb/c mouse at 10 mg/kg, po", "assay_type": "ADME, organism-based", "design": "dose 10 mg/kg, route oral", "conditions": "in vivo"}, "[14]": {"molecular_target": "CYP3A4 (Homo sapiens, UniProt P11712)", "sequence (P11712 whole entry)": "as above", "test": "Inhibition of CYP3A4 in human liver microsomes using midazolam as substrate at 10 uM after 10 mins", "assay_type": "ADME, Microsome", "conditions": "probe midazolam"}, "[15]": {"test": "Drug metabolism in mouse liver microsomes at 2 uM after 30 mins by LC-MS analysis", "assay_type": "ADME, Microsome", "conditions": "read-out: Drug metabolism"}, "[16]": {"test": "Clearance in Balb/c mouse at 1 mg/kg, iv", "assay_type": "ADME, organism-based", "design": "dose 1 mg/kg, route intravenous", "conditions": "in vivo"}, "[17]": {"test": "Half life in Balb/c mouse at 3 mg/kg, po", "assay_type": "ADME, organism-based", "design": "dose 3 mg/kg, route oral", "conditions": "in vivo"}, "[18]": {"test": "Drug metabolism in human liver microsomes at 2 uM after 30 mins by LC-MS analysis", "assay_type": "ADME, Microsome", "conditions": "read-out: Drug metabolism"}, "[19]": {"test": "Drug metabolism in dog liver microsomes at 2 uM after 30 mins by LC-MS analysis", "assay_type": "ADME, Canis lupus familiaris, Microsome", "conditions": "read-out: Drug metabolism"}, "[20]": {"test": "Half life in Balb/c mouse at 100 mg/kg, po", "assay_type": "ADME, organism-based", "design": "dose 100 mg/kg, route oral", "conditions": "in vivo"}, "[21]": {"test": "Drug metabolism in rat liver microsomes at 2 uM after 30 mins by LC-MS analysis", "assay_type": "ADME, Microsome", "conditions": "read-out: Drug metabolism"}, "[22]": {"molecular_target": "CYP2C9 (Homo sapiens, UniProt P11712)", "sequence (P11712 whole entry)": "as above", "test": "Inhibition of CYP2C9 in human liver microsomes using diclofenac as substrate at 10 uM after 10 mins", "assay_type": "ADME, Microsome", "conditions": "probe diclofenac"}, "[23]": {"molecular_target": "CYP2D6 (Homo sapiens, UniProt P10635)", "sequence (P10635 whole entry)": "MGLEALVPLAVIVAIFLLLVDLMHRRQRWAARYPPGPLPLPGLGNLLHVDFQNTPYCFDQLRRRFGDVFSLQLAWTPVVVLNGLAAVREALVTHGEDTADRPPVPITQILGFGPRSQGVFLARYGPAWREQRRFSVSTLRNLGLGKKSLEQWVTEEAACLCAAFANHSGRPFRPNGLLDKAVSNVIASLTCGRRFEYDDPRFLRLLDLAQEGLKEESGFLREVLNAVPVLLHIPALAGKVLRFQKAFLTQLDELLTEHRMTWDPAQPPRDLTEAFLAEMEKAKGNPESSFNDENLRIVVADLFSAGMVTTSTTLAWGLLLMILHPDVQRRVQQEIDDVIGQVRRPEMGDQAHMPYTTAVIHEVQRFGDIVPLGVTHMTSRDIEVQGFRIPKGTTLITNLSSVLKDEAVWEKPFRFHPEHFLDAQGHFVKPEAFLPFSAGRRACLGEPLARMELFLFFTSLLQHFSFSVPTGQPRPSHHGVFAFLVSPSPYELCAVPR", "test": "Inhibition of CYP2D6 in human liver microsomes using bufuralol as substrate at 10 uM after 10 mins", "assay_type": "ADME, Microsome", "conditions": "probe bufuralol"}, "[24]": {"test": "Tmax in Balb/c mouse at 100 mg/kg, po", "assay_type": "ADME, organism-based", "design": "dose 100 mg/kg, route oral", "conditions": "in vivo"}},
  "note": "The source made the active and inactive calls. The calls are words filed in the database; no cut-off is given here.",
  "data": [
    {"smiles": "Cc1ccc2nc(C(F)(F)F)c(C(=O)NCc3ccc(S(C)(=O)=O)cc3)n2c1", "values": [
      {"measurement": "MIC99", "setting": "[1]", "value": 0.9, "unit": "µM"}
    ]},
    {"smiles": "C[C@H]1COC2(CCN(c3nc(=O)c4cc(C(F)(F)F)cc([N+](=O)[O-])c4s3)CC2)O1", "note": "[BTZ-043]", "values": [
      {"measurement": "MIC99", "setting": "[1]", "value": 0.003, "unit": "µM"}
    ]},
    {"smiles": "Cc1ccc2nc(C)c(C(=O)NCc3ccc(Oc4ccc(F)cc4)cc3)n2c1", "values": [
      {"measurement": "MIC99", "setting": "[1]", "value": 0.005, "unit": "µM"}
    ]},
    {"smiles": "Cc1ccc2nc(C)c(C(=O)NCc3ccccc3)n2c1", "values": [
      {"measurement": "MIC99", "setting": "[1]", "value": 0.006, "unit": "µM"},
      {"measurement": "MIC99", "setting": "[2]", "value": "< 0.04", "unit": "µM"},
      {"measurement": "MIC99", "setting": "[3]", "value": "< 0.04", "unit": "µM"},
      {"measurement": "MIC99", "setting": "[4]", "value": "< 0.04", "unit": "µM"},
      {"measurement": "MIC99", "setting": "[5]", "value": 0.04, "unit": "µM"}
    ]},
    {"smiles": "Cc1ccc2nc(C)c(C(=O)NCc3ccc(S(C)(=O)=O)cc3)n2c1", "values": [
      {"measurement": "MIC99", "setting": "[1]", "value": 0.4, "unit": "µM"}
    ]},
    {"smiles": "CO[C@H]1/C=C/O[C@@]2(C)Oc3c(C)c(O)c4c(O)c(c(/C=N/N5CCN(C)CC5)c(O)c4c3C2=O)NC(=O)/C(C)=C\\C=C\\[C@H](C)[C@H](O)[C@@H](C)[C@@H](O)[C@@H](C)[C@H](OC(C)=O)[C@@H]1C", "note": "[RIFAMPIN]", "values": [
      {"measurement": "MIC99", "setting": "[1]", "value": 0.003, "unit": "µM"}
    ]},
    {"smiles": "Cc1ccn2c(C(=O)NCc3ccc(Oc4ccc(F)cc4)cc3)c(C)nc2c1", "values": [
      {"measurement": "Drug metabolism", "setting": "[6]", "value": "Active"},
      {"measurement": "Drug metabolism", "setting": "[7]", "value": "Active"},
      {"measurement": "Drug metabolism", "setting": "[8]", "value": "Active"},
      {"measurement": "inhibition (INH)", "setting": "[9]", "value": "Active"},
      {"measurement": "MIC99", "setting": "[1]", "value": 0.004, "unit": "µM"},
      {"measurement": "MIC99", "setting": "[2]", "value": "< 0.03", "unit": "µM"},
      {"measurement": "MIC99", "setting": "[3]", "value": "< 0.03", "unit": "µM"},
      {"measurement": "Tmax", "setting": "[10]", "value": 0.5, "unit": "h"},
      {"measurement": "MIC90", "setting": "[4]", "value": 0.03, "unit": "µM"},
      {"measurement": "Tmax", "setting": "[11]", "value": 0.5, "unit": "h"},
      {"measurement": "MIC99", "setting": "[5]", "value": "< 0.03", "unit": "µM"},
      {"measurement": "Activity", "setting": "[12]", "value": "Active"},
      {"measurement": "half-life", "setting": "[13]", "value": 13.2, "unit": "h"}
    ]},
    {"smiles": "Cc1nc2c(C)cccn2c1C(=O)NCc1ccc(Oc2ccc(F)cc2)cc1", "values": [
      {"measurement": "MIC99", "setting": "[1]", "value": 0.1, "unit": "µM"}
    ]},
    {"smiles": "COc1cccc(CNC(=O)c2c(C)nc3cc(Cl)ccn23)c1", "values": [
      {"measurement": "MIC99", "setting": "[1]", "value": 1.1, "unit": "µM"}
    ]},
    {"smiles": "O=[N+]([O-])c1cn2c(n1)OC[C@@H](OCc1ccc(OC(F)(F)F)cc1)C2", "note": "[PRETOMANID]", "values": [
      {"measurement": "MIC99", "setting": "[1]", "value": 0.6, "unit": "µM"},
      {"measurement": "MIC99", "setting": "[2]", "value": 0.5, "unit": "µM"},
      {"measurement": "MIC99", "setting": "[3]", "value": "> 13.9", "unit": "µM"},
      {"measurement": "MIC99", "setting": "[4]", "value": 0.5, "unit": "µM"},
      {"measurement": "MIC99", "setting": "[5]", "value": 0.5, "unit": "µM"}
    ]},
    {"smiles": "Cc1ccn2c(C(=O)NCc3ccc(S(N)(=O)=O)cc3)c(C)nc2c1", "values": [
      {"measurement": "MIC99", "setting": "[1]", "value": "> 20", "unit": "µM"}
    ]},
    {"smiles": "Cc1ccn2c(C(=O)NCc3ncc(C(F)(F)F)cc3Cl)c(C)nc2c1", "values": [
      {"measurement": "Drug metabolism", "setting": "[6]", "value": "Active"},
      {"measurement": "Drug metabolism", "setting": "[7]", "value": "Active"},
      {"measurement": "inhibition at 10 min, 10 µM", "setting": "[14]", "value": 0, "unit": "%"},
      {"measurement": "Drug metabolism", "setting": "[8]", "value": "Active"},
      {"measurement": "inhibition (INH)", "setting": "[9]", "value": "Active"},
      {"measurement": "metabolised at 0.5 h, 2 µM", "setting": "[15]", "value": 79.9, "unit": "%"},
      {"measurement": "clearance", "setting": "[16]", "value": 43.1, "unit": "mL/min/kg"},
      {"measurement": "half-life", "setting": "[17]", "value": 5, "unit": "h"},
      {"measurement": "metabolised at 0.5 h, 2 µM", "setting": "[18]", "value": 0, "unit": "%"},
      {"measurement": "MIC99", "setting": "[1]", "value": 0.7, "unit": "µM"},
      {"measurement": "MIC99", "setting": "[2]", "value": 0.4, "unit": "µM"},
      {"measurement": "metabolised at 0.5 h, 2 µM", "setting": "[19]", "value": 41.2, "unit": "%"},
      {"measurement": "Tmax", "setting": "[10]", "value": 0.25, "unit": "h"},
      {"measurement": "MIC99", "setting": "[4]", "value": 6.5, "unit": "µM"},
      {"measurement": "half-life", "setting": "[20]", "value": 1.93, "unit": "h"},
      {"measurement": "metabolised at 0.5 h, 2 µM", "setting": "[21]", "value": 19.3, "unit": "%"},
      {"measurement": "inhibition at 10 min, 10 µM", "setting": "[22]", "value": 11.5, "unit": "%"},
      {"measurement": "inhibition at 10 min, 10 µM", "setting": "[23]", "value": 2.8, "unit": "%"},
      {"measurement": "Activity", "setting": "[12]", "value": "Active"},
      {"measurement": "Tmax", "setting": "[24]", "value": 2, "unit": "h"}
    ]},
    {"smiles": "NNC(=O)c1ccncc1", "note": "[ISONIAZID]", "values": [
      {"measurement": "MIC99", "setting": "[1]", "value": 0.3, "unit": "µM"}
    ]},
    {"smiles": "COc1cccc(NC(=O)c2c(C)nc3cc(C)ccn23)c1", "values": [
      {"measurement": "MIC99", "setting": "[1]", "value": "> 20", "unit": "µM"}
    ]},
    {"smiles": "Cc1ccn2c(C(=O)NCc3ccccc3)c(C)nc2c1", "values": [
      {"measurement": "MIC99", "setting": "[1]", "value": 0.2, "unit": "µM"},
      {"measurement": "metabolised at 0.5 h, 2 µM", "setting": "[21]", "value": 71, "unit": "%"},
      {"measurement": "Activity", "setting": "[12]", "value": "Active"}
    ]}
  ]
}
